Data: US20020183290A1, “Adrenergic receptor antagonists selective for both alpha1A-and alpha1D-subtypes and uses therefor” (Recordati S.A., Chemical and Pharmaceutical Company, priority 2001, published 2002)
Like-named read-outs stand apart in the source and are kept apart here.

What was measured:
[1] = target: T1, cloned α1b-adrenoceptor subtype (Homo sapiens, UniProt P35368); test: Radioligand binding assay ([3H]prazosin), cloned α1b-adrenoceptor subtype; details: read-out: Binding Affinity (Ki nM) α1b
T1 construct: expressed in transfected cells
T1 sequence (P35368 1-520): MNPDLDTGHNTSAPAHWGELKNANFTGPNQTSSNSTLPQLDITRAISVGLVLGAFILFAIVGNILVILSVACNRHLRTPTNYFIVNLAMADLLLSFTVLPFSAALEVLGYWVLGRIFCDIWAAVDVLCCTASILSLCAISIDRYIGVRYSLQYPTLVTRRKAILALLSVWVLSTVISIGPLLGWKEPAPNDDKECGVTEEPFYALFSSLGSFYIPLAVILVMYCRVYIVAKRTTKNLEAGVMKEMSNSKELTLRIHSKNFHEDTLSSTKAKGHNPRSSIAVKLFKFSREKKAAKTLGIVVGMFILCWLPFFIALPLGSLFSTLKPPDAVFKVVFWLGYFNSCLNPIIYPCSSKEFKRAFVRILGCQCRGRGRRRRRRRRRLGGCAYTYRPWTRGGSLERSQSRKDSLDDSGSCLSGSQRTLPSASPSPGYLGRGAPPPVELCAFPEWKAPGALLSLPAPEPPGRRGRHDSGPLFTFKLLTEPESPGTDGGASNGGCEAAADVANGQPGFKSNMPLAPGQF
Protocol: (§1) Springer-Verlag, pp. 10-12). […] The results from these assays are used to calculate a measure of receptor selectivity, expressed as the ratio of affinities (Ki) for a given pair of receptors.
(§2) Determination of affinity for cloned subtypes of α1-adrenoceptor subtypes was performed in membranes from cells transfected by electroporation with DNA expressing the genes encoding each α1-adrenoceptor subtype.
(§3) Non-specific binding was determined in the presence of 10 μM phentolamine. Incubation was stopped by addition of ice-cold Tris buffer and rapid filtration through 0.2% polyethyleneimine-pretreated Schleicher & Schuell GF52 filters. […] Data were expressed as mean Ki.

[2] = target: T2, cloned α1a-adrenoceptor subtype (Homo sapiens, UniProt P35348); test: Radioligand binding assay ([3H]prazosin), cloned α1a-adrenoceptor subtype; details: read-out: Binding Affinity (Ki nM) α1a
T2 construct: expressed in transfected cells
T2 sequence (P35348 1-466): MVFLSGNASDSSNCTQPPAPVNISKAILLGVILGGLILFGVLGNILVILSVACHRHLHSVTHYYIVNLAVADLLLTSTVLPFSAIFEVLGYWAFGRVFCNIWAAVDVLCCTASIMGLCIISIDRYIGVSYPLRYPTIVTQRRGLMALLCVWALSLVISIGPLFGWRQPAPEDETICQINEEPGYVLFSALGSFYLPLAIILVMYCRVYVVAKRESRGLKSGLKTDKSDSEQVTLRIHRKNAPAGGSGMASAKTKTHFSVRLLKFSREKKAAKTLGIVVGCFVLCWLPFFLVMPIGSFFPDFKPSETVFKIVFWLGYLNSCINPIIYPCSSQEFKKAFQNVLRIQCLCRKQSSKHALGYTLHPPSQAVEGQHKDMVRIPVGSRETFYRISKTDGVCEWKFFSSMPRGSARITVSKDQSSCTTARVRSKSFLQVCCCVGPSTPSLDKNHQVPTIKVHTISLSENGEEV
Protocol: as §1, §2, §3

[3] = system: conscious rats with partial urethral obstruction; test: Cystometry in conscious rats obstructed by partial urethra ligature (unstable-bladder contractions); type: in vivo, rat; details: for inhibition in vivo at 1 mg/kg / inhibition in vivo at 3 mg/kg: 2 min; for Amplitude of non-effective micturition contractions, After Treat. / Frequency (number) of non-effective micturition contractions, After Treat.: after treatment; for Activity as inhibitors of unstable-bladder contractions (in words): obstructed conscious rats, summary of Tables 1 and 2
From the text: A useful animal model system for measuring such pharmacological activity is, without limitation, cystometry in conscious rats with partial bladder-neck obstruction. […] This model is reported in the literature as related to LUTS occurring in patients having obstructive urethral syndromes (Michel, 2000, Drugs of Today. 386 (Supp. B2): 3-6)
In order to obtain a partial obstruction of the urethra, the method previously reported by Malgren (Nalgren et al., 1987, J. Urol. 137:1291-1294; 1988, Neurourol. Urodyn. 6:371), was followed with minor modifications (Guarneri et al., 1991, Pharmacol. Res. 24:263).
Female rats of the Sprague-Dawley strain [Crl:CD(SD)BR, from Charles River Italia, Calco, Como, Italy] weighing 225-275 g were used. The animals were maintained in constant temperature and humidity conditions, on a forced 12-hour light-dark cycle and with food and water ad libitum for at least one week before the experiment.
After being anaesthetized with 3 ml/kg i.p. equitensin (pentobarbital 1.215 g, chloral hydrate 5.312 g, magnesium sulphate 2.657 g, ethanol 12.5 ml, propylene glycol 49.5 ml, distilled water to 125 ml of final volume), the rats were placed in a supine position and the bladder and urethra were exposed via an incision in the shaven abdomens and gently pulling away the muscle portion. The urethra was cannulated with a polyethylene tube with an outside diameter of 1.22 mm, and the urinary bladder was then emptied and, via the cannula introduced through the urethra, filled with physiological saline. A silk (Ethicon 3/0) ligature was placed around the urethra with the cannula inside and the intraurethral cannula was then removed. The abdominal incision was sutured and, immediately after the operative procedure, antibiotic medication (penicillin G 200 000 I.U./kg i.p. and streptomycin 260 mg/kg i.p.) was performed.
Three weeks after the procedure for partially obstructing the urethra, the animals were prepared for cystometry by surgical insertion into the bladder of a catheter, through which the bladder was gradually filled.
The rats, anaesthetised with equitensin 3 ml/kg i.p., were placed in a supine position and, via an incision of about 10 mm in the abdominal wall, the urinary bladder was exposed and gently freed from surrounding tissues.
The urinary bladder was emptied manually and cannulated, via a small incision at the bladder top, with a polyethylene cannula (type PE-50, 0.58 mm I.D. ×0.96 mm O.D.), which was permanently secured to the bladder with silk thread.
The cannula was exposed through a subcutaneous tunnel in the retroscapular area, where it was fastened with a plastic adapter, in order to avoid the risk of removal by the animal. After washing the urinary bladder with physiological saline, the catheter was sealed using a small flame and the abdominal incision was sutured.
To allow evaluation of the effect of a test compound after intravenous administration, the jugular vein was cannulated with a polyethylene cannula (type PE-50, 0.58 mm I.D.×0.96 mm O.D.) filled with heparinised physiological saline. As for the bladder catheter, this cannula, too, was exteriorised, secured and sealed in the retroscapular area.
Two days after the operation, the rats, fasted overnight, were placed in Bollman's cages or in Bollman's cages modified so as to have an opening in the bottom to allow collection of urinated fluid.
After an adaptation period of 20 minutes, the free end of the bladder cannula was connected to a pressure transducer and a special apparatus which allowed infusion into the urinary bladder of physiological saline at 37° C. at a constant rate of 10 ml/hour. Intravesical pressure changes caused by bladder filling were recorded by the pressure transducer which was connected to a recording polygraph.
From the cystometrograms, the frequency and mean amplitude of spontaneous bladder contractions not inducing micturition, termed “unstable-bladder contractions” (UBC), within 2 minutes prior to micturition were evaluated. […]

[4] = target: T3, cloned α1d-adrenoceptor subtype (Homo sapiens, UniProt P25100); test: Radioligand binding assay ([3H]prazosin), cloned α1d-adrenoceptor subtype; details: read-out: Binding Affinity (Ki nM) α1d
T3 construct: expressed in transfected cells
T3 sequence (P25100 1-572): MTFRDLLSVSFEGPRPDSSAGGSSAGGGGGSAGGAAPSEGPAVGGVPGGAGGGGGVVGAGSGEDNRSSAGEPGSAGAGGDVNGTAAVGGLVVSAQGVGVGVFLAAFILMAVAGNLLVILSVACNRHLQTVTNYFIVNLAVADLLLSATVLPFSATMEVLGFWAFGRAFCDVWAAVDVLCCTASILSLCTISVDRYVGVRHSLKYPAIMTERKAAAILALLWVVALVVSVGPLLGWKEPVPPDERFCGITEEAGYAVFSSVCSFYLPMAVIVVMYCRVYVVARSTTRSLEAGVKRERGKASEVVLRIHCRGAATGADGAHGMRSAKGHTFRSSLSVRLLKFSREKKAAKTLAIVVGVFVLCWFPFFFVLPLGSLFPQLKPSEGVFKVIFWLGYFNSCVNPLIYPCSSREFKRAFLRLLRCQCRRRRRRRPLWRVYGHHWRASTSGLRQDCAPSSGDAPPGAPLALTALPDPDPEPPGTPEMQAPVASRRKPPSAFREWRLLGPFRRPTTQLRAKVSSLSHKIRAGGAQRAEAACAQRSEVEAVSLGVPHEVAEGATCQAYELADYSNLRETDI
Protocol: as §1, §2, §3

LUTS = LUTS secondary to BPH; relaxing effects on prostate smooth muscle were present; cited from earlier work
[5] = cloned receptor, cell membranes, 0.2 nM [3H]prazosin, mean Ki
[6] = obstructed rat, 1 mg/kg, 2 minutes before micturition, read-out: % inhibition of amplitude of non-effective micturition contractions
[7] = obstructed rat, 1 mg/kg, 2 minutes before micturition, read-out: % inhibition of frequency of non-effective micturition contractions
[8] = Rattus norvegicus, read-out: % inhibition of amplitude of non-effective micturition contractions
[9] = Rattus norvegicus, read-out: % inhibition of frequency of non-effective micturition contractions

SMILES | Ki [1, 5] [nM] | Ki [2] [nM] | inhibition in vivo at 1 mg/kg [3, 6] [%] | inhibition in vivo at 1 mg/kg [3, 7] [%] | Amplitude of non-effective micturition contractions, After Treat. ([3]; 1.0 mg/kg) [mmHg] | Frequency (number) of non-effective micturition contractions, After Treat. ([3]; 1.0 mg/kg) | Activity as inhibitors of unstable-bladder contractions (in words) [3] | Ki [4] [nM] | Ki [1] [nM] | Relief of LUTS in clinical trial (LUTS) | inhibition in vivo at 1 mg/kg [3, 8] [%] | inhibition in vivo at 1 mg/kg [3, 9] [%] | inhibition in vivo at 3 mg/kg [3, 8] [%] | inhibition in vivo at 3 mg/kg [3, 9] [%] | Amplitude of non-effective micturition contractions, After Treat. ([3]; 3.0 mg/kg) [mmHg] | Frequency (number) of non-effective micturition contractions, After Treat. ([3]; 3.0 mg/kg)
COc1ccc(Cl)cc1N1CCN(CCCNC(=O)c2c(-c3ccccc3)noc2C)CC1 [Compound B, N-{3-[4-(5-Chloro-2-methoxyphenyl)-1-piperazinyl]propyl}-5-methyl-3-phenylisoxazole-4-carboxamide] | 23.6 | 0.8 | 44 | 49 | 4.2 ± 1.0 | 3.0 ± 0.7 | more potent | 2.7 |  |  |  |  |  |  |  | 
Cc1onc(-c2ccccc2Cl)c1C(=O)NCCCN1CCN(c2ccccc2OCC(F)(F)F)CC1 [Compound D, 3-(2-chlorophenyl)-5-methyl-N-{3-[4-[2-(2,2,2-trifluoroethoxy)phenyl]-1-piperazinyl]propy}isoxazole-4-carboxamide] |  | 0.07 | 73 | 68 | 2.1 ± 0.7 | 1.7 ± 0.8 | more potent | 0.49 | 14.1 |  |  |  |  |  |  | 
COc1ccccc1N1CCN(CCCNC(=O)c2cccc3c(=O)c(C)c(-c4ccccc4)oc23)CC1 [Rec 15/2739] |  |  |  |  | 7.3 ± 1.3 | 4.8 ± 0.2 | poorly active |  |  | did not result in relief of LUTS | 29 | 28 |  |  |  | 
Cc1onc(-c2ccccc2)c1C(=O)NCCCN1CCN(c2ccc(F)cc2OCC(F)(F)F)CC1 [Rec 27/0110] | 69 | 0.35 |  |  | 6.0 ± 1.4 | 4.4 ± 0.8 | poorly active | 18.9 |  |  | 21 | 27 | 53 | 49 | 2.3 ± 0.8 | 2.2 ± 0.7
